Assay results published in ChEMBL document CHEMBL3621111, “In vitro COX-1 and COX-2 enzyme inhibitory activities of iridoids from Penstemon barbatus, Castilleja tenuiflora, Cresentia alata and Vitex mollis” (Bioorg Med Chem Lett, 2015).

Tests used:
[1] = biological target: Prostaglandin G/H synthase 1 (Homo sapiens) (UniProt P23219); test: Inhibition of COX1 (unknown origin) assessed as PGH2 production at 10 uM by measuring […] level by enzyme immunoassay
[2] = biological target: Prostaglandin G/H synthase 1 (Homo sapiens) (UniProt P23219); test: Inhibition of COX1 (unknown origin) assessed as PGH2 production at 35 uM by measuring […] level by enzyme immunoassay
[3] = biological target: Prostaglandin G/H synthase 1 (Homo sapiens) (UniProt P23219); test: Inhibition of COX1 (unknown origin) assessed as PGH2 production at 100 uM by measuring […] level by enzyme immunoassay

Chain of Prostaglandin G/H synthase 1 (Homo sapiens) (P23219 whole entry): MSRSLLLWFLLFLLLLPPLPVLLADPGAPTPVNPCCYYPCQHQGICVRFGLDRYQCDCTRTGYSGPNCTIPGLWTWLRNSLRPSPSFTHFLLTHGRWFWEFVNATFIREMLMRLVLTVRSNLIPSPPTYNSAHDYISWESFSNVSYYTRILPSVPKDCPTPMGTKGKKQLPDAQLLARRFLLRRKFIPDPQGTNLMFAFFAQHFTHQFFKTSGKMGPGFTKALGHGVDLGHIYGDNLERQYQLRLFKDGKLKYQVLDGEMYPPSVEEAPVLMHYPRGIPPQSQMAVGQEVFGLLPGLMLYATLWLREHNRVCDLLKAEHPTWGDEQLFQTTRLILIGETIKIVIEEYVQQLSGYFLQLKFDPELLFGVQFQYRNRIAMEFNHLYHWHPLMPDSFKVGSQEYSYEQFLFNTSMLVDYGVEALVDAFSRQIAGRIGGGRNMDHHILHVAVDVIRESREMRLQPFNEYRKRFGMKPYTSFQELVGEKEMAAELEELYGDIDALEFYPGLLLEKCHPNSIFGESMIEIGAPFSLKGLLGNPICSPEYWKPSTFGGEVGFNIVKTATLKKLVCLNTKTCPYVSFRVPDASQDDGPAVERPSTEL

Compound | inhibition [1] [%] | inhibition [2] [%] | inhibition [3] [%]
OCC1=C[C@@H](O)[C@@H]2C=CO[C@@H](O[C@@H]3O[C@H](CO)[C@@H](O)[C@H](O)[C@H]3O)[C@H]12 | 49.9 | 48.2 | 50.2
O=C(OCC1=C[C@@H](O)[C@@H]2C=CO[C@@H](O[C@@H]3O[C@H](CO)[C@@H](O)[C@H](O)[C@H]3O)[C@H]12)c1ccc(O)cc1 | 40.3 | 40.8 | 43.4
COC(=O)C1=CO[C@@H](O[C@@H]2O[C@H](CO)[C@@H](O)[C@H](O)[C@H]2O)[C@H]2[C@@H]1CC[C@]2(C)O | < 30 | 42.6 | 42.7
C=C1[C@H]2[C@H](O[C@@H]3O[C@H](CO)[C@@H](O)[C@H](O)[C@H]3O)OC=C(C(=O)O)[C@H]2C[C@@H]1O | 51.7 | 51.4 | 48.2
O=C(O)C1=CO[C@@H](O[C@@H]2O[C@H](CO)[C@@H](O)[C@H](O)[C@H]2O)[C@@H]2C(CO)=CC[C@H]12 | 55.7 | 54.1 | 55.3
OCC1=CC[C@@H]2C=CO[C@@H](O[C@@H]3O[C@H](CO)[C@@H](O)[C@H](O)[C@H]3O)[C@H]12 | 52.7 | 49.9 | 47.5
C[C@@H]1CC[C@]2(O)C(C=O)=CO[C@@H](O[C@@H]3O[C@H](CO)[C@@H](O)[C@H](O)[C@H]3O)[C@H]12 | 36.3 | 36.6 | 39.9
COc1ccc(C(=O)O[C@@H]2C=C(CO)[C@H]3[C@H](O[C@@H]4O[C@H](CO)[C@@H](O)[C@H](O)[C@H]4O)OC=C[C@H]32)cc1 | 35 | 34.3 | 32.8
COc1ccc(C(=O)O[C@H]2[C@@H]3C=CO[C@@H](O[C@@H]4O[C@H](CO)[C@@H](O)[C@H](O)[C@H]4O)[C@@H]3[C@@]3(CO)O[C@@H]23)cc1OC | 38.2 | 38.6 | 39.1
CC(=O)O[C@]1(C)C[C@@H](O)[C@]2(O)C=CO[C@@H](O[C@@H]3O[C@H](CO)[C@@H](O)[C@H](O)[C@H]3O)[C@@H]21 | 38.5 | 38.6 | 39.1
COC(=O)C1=CO[C@@H](O[C@@H]2O[C@H](CO)[C@@H](O)[C@H](O)[C@H]2O)[C@@H]2[C@@H](C)[C@@H](O)C[C@H]12 | 51.2 | 51.5 | 50.5
C[C@@H]1[C@H]2[C@H](O[C@@H]3O[C@H](CO)[C@@H](O)[C@H](O)[C@H]3O)OC=C(C(=O)O)[C@H]2C[C@@H]1O | 36.9 | 36 | 35.4
C[C@@H]1CC[C@@H]2C(C=O)=CO[C@@H](O[C@@H]3O[C@H](CO)[C@@H](O)[C@H](O)[C@H]3O)[C@H]12 | 43 | 48 | 73.3
COC(=O)C1=CO[C@@H](O[C@@H]2O[C@H](CO)[C@@H](O)[C@H](O)[C@H]2O)[C@@H]2[C@H](C)[C@@H](O)C[C@H]12 | 33.4 | < 30 | < 30
COC(=O)C1=CO[C@@H](O[C@@H]2O[C@H](CO)[C@@H](O)[C@H](O)[C@H]2O)[C@@H]2[C@H](C)C[C@@H](O)[C@]12O | 33.2 | 33.4 | 51.7
OC[C@H]1O[C@@H](O[C@@H]2OC=C[C@H]3[C@H](O)[C@@H]4O[C@]4(CO)[C@@H]23)[C@H](O)[C@@H](O)[C@@H]1O | 44.2 | 47.6 | 63.7
